Laboratory results as given in article PMC9326216, “Treatment of Cardiovascular Dysfunction with PDE3-Inhibitors in Moderate and Severe Hypothermia—Effects on Cellular Elimination of Cyclic Adenosine Monophosphate and Cyclic Guanosine Monophosphate” (Frontiers in Physiology, 2022).
Where two headings read alike, the source gives them in different places.

Molecular target: T1, ABCC4 (Homo sapiens, UniProt O15439)
T1 sequence (O15439 1-1325): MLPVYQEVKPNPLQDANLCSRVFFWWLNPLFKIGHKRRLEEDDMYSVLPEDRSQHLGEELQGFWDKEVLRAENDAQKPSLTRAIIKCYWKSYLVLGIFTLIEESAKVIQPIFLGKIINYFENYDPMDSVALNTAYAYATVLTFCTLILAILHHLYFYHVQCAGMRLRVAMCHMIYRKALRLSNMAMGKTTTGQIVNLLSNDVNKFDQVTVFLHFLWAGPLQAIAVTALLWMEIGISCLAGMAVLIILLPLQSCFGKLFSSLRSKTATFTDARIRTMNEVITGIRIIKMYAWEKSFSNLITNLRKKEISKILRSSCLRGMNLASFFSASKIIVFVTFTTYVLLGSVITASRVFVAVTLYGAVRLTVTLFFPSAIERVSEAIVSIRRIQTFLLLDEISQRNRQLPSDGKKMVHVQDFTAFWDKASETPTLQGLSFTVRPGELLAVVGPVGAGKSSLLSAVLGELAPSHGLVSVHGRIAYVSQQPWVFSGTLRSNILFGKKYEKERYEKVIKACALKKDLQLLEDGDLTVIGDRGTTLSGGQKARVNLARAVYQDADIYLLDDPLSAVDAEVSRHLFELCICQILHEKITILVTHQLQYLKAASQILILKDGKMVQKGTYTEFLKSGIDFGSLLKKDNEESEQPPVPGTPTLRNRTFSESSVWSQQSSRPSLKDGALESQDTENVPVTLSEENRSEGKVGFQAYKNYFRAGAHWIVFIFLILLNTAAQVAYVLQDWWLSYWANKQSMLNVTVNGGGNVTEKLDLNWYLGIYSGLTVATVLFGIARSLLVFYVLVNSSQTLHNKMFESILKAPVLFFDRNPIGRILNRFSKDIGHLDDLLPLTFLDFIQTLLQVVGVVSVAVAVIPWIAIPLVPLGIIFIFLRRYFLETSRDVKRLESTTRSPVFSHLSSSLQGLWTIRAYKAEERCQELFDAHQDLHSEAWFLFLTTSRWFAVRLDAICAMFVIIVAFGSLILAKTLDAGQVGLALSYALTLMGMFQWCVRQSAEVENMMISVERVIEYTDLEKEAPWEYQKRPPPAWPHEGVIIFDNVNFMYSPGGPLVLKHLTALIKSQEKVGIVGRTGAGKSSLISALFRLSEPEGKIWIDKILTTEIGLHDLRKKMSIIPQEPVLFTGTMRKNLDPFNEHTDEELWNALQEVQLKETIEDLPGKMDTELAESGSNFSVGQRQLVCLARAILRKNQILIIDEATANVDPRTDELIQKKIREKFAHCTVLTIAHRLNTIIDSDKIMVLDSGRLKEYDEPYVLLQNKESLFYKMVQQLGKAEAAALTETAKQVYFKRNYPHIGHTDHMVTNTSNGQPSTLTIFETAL
Assay: biochemical
Type: biochemical
Protocol: Freshly collected EDTA blood from healthy donors (n = 35) was prepared at 0°C–4°C, starting by separating the erythrocytes from plasma by centrifugation at 2,300 g for approximately 15 min. […] Lysis followed thereafter, with ten volumes of 5 mM Tris-HCl, 0.5 mM EGTA, 4 mM KCl (pH 8.1) and washed by repeated centrifugation at 20,000 g for 20 min and resuspension in the same buffer. Vesiculation was initiated by adding 39 volumes of a […] buffer ([…] Tris-HCl, pH 8.2) to one volume of cell suspension and completed by forcing the solution five times through a 27-gauge syringe needle to promote homogenization of the membranes. […] The resulting IOVs, which still contained ABC-transporters in the membrane, enabled us to control the intracellular environment, in this case the surrounding medium, and collect the cyclic nucleotides within. […] Radioactive labeled (^3H)-cAMP or (^3H)-cGMP (Perkin Elmer, Boston, MA, United States) were added to the incubation solutions in the concentration 20 and 2 μM, respectively, depending on the transporter examined, together with the appointed study drug in concentrations up to 1 mM. […] Next step was to collect the IOVs, which was done by filtration through a nitrocellulose membrane (Bio-Rad Laboratories, Feldkirchen, Germany), and then drying it. The resulting collection of radioactivity upon the filter, was later quantified by using a Packard TopCount NXT (Packard, Downers Grove, IL, United states) after adding scintillation fluid (MicroScint-O, PerkinElmer, Groningen, Netherlands).
IC50 and Ki values were calculated for each of the drugs, both for their ability to inhibit cAMP- and cGMP- efflux, as well as PDE3 and PDE5 activity. […] Inhibition curves were created accordingly, both with and without adjustment for normothermic control.

## Nc1cc(-c2ccncc2)c[nH]c1=O [Amrinone]
28°C, cAMP-efflux, inside-out vesicles, 20 µM 3H-cAMP, 60 min, read-out: ABCC4 IC50
  IC50: 8.42 ± 4.81 µM
28°C, cAMP-efflux, inside-out vesicles, read-out: ABCC4 Ki
  Ki: 5.11 ± 2.91 µM
32°C, cAMP-efflux, inside-out vesicles, 20 µM 3H-cAMP, 60 min, read-out: ABCC4 IC50
  IC50: 5.49 ± 2.25 µM
32°C, cAMP-efflux, inside-out vesicles, read-out: ABCC4 Ki
  Ki: 3.33 µM
34°C, cAMP-efflux, inside-out vesicles, 20 µM 3H-cAMP, 60 min, read-out: ABCC4 IC50
  IC50: 1.21 ± 0.1 µM
34°C, cAMP-efflux, inside-out vesicles, read-out: ABCC4 Ki
  Ki: 0.73 ± 0.058 µM
37°C, cAMP-efflux, inside-out vesicles, 20 µM 3H-cAMP, 60 min, read-out: ABCC4 IC50
  IC50: 4.65 ± 3.21 µM
37°C, cAMP-efflux, inside-out vesicles, read-out: ABCC4 Ki
  Ki: 2.82 µM

## C[C@@H]1CC(=O)NN=C1c1ccc(NN=C(C#N)C#N)cc1 [Levosimendan]
28°C
  Drug selectivity (IC50)/(IC50): (cAMP-efflux)/(PDE3) inhibition: 270.65
28°C, Table 3, read-out: ABCC5 IC50 (Table 3)
  IC50: 27.2 ± 21.3 µM
28°C, Table 3, read-out: ABCC5 Ki (Table 3)
  Ki: 16.5 ± 12.9 µM
28°C, listed as L
  Drug selectivity (IC50)/(IC50): (cAMP-efflux)/(PDE3) inhibition: 270.7
32°C
  Drug selectivity (IC50)/(IC50): (cAMP-efflux)/(PDE3) inhibition: 85.98
32°C, Table 3, read-out: ABCC5 IC50 (Table 3)
  IC50: 16.5 ± 5.56 µM
32°C, Table 3, read-out: ABCC5 Ki (Table 3)
  Ki: 10 ± 3.37 µM
34°C
  Drug selectivity (IC50)/(IC50): (cAMP-efflux)/(PDE3) inhibition: 43.45
34°C, Table 3, read-out: ABCC5 IC50 (Table 3)
  IC50: 12.7 ± 6.6 µM
34°C, Table 3, read-out: ABCC5 Ki (Table 3)
  Ki: 7.73 ± 4 µM
37°C
  Drug selectivity (IC50)/(IC50): (cAMP-efflux)/(PDE3) inhibition: 28.76
37°C, Table 3, read-out: ABCC5 IC50 (Table 3)
  IC50: 9.41 ± 5.91 µM
37°C, Table 3, read-out: ABCC5 Ki (Table 3)
  Ki: 5.71 ± 3.58 µM
